Test results as given in patent publication US20240116985A1, “STAPLED PEPTIDES AND METHODS THEREOF” (priority 2020, published 2024).
pIC50: −log10 of the molar value.

target: T1, full-length beta-Catenin (Uniprot ID P35222) (Homo sapiens, UniProt P35222); test: Fluorescence polarization IC50 (beta-catenin / 5FAM-TCF4 10-53 competition); type: binding; conditions: fluorescence polarization; read-out: beta-Catenin FP IC50
T1 construct: 10 nM full-length beta-Catenin (Uniprot ID P35222)
T1 sequence (P35222 1-781): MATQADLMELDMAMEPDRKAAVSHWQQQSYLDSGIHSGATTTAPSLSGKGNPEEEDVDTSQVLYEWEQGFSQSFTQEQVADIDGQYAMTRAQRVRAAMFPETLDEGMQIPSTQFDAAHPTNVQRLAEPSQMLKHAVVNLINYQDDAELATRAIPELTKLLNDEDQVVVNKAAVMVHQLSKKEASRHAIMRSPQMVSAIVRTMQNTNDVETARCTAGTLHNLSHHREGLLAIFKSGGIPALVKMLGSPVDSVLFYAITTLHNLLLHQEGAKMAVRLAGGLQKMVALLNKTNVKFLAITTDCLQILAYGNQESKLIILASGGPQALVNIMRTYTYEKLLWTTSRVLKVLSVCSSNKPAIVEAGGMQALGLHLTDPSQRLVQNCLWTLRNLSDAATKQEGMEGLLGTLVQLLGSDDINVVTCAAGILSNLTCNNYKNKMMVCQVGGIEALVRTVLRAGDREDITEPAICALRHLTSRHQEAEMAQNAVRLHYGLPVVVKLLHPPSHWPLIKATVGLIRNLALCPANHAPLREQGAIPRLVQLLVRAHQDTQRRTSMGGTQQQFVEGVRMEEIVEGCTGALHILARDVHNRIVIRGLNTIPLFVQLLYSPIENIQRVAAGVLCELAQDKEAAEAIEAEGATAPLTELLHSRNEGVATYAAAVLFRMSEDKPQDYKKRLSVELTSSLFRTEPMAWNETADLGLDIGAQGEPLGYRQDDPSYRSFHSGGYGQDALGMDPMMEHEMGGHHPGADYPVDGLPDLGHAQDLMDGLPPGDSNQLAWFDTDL

SMILES	pIC50
CC(=O)N1CCC[C@]12CC=CCCCC1(CCCC=CCCCOC(=O)N3CC[C@@](C(=O)N[C@@H](Cc4ccsc4)C(=O)N[C@@H](Cc4csc5ccccc45)C(=O)N[C@@H](CCC(N)=O)C(N)=O)(C3)NC(=O)[C@H](CC(N)=O)NC(=O)[C@H](Cc3ccccc3)NC(=O)[C@H](C)NC(=O)[C@H](C)NC(=O)[C@H]([C@@H](C)O)NC(=O)[C@H]([C@@H](C)O)NC1=O)NC(=O)[C@H](CC(C)(C)C)NC(=O)[C@H](CC(=O)O)NC2=O (stereo partly drawn) [I-2149, Ac-PL3-Asp-Npg-B5-Thr-Thr-Ala-Ala-Phe-Asn-PyrS2-3Thi-BztA-Gln-NH2]	5.14
CC(=O)N1CCC[C@]12CCCCCCC1(CCCCCCCCOC(=O)N3CC[C@@](C(=O)N[C@@H](Cc4ccsc4)C(=O)N[C@@H](Cc4csc5ccccc45)C(=O)N[C@H](C(N)=O)C(C)C)(C3)NC(=O)[C@H]([C@@H](C)O)NC(=O)[C@H](Cc3ccccc3)NC(=O)[C@H](C)NC(=O)[C@H](C)NC(=O)[C@H](CN(CC(=O)O)CC(F)(F)F)NC(=O)[C@H](CC(=O)O)NC1=O)NC(=O)[C@H](CC(C)(C)C)NC(=O)[C@H](CC(=O)O)NC2=O (stereo partly drawn) [I-1758, Ac-PL3-Asp-Npg-B5-Asp-TfeGA-Ala-Ala-Phe-Thr-PyrS2-3Thi-BztA-Val-NH2]	6.63
CC(=O)N1CCC[C@]12CC=CCCCC1(CCCC=CCCCOC(=O)N3CC[C@@](C(=O)N[C@@H](Cc4ccsc4)C(=O)N[C@@H](Cc4csc5ccccc45)C(=O)N[C@@H](CCC(N)=O)C(N)=O)(C3)NC(=O)[C@H](CC(C)C)NC(=O)[C@H](Cc3ccccc3)NC(=O)[C@H](C)NC(=O)[C@H](C)NC(=O)[C@H](CCN(CC(=O)O)C(=O)CN3CCOCC3)NC(=O)[C@H](CC(=O)O)NC1=O)NC(=O)[C@H](CC(C)(C)C)NC(=O)[C@H](CC(=O)O)NC2=O (stereo partly drawn) [I-2249, Ac-PL3-Asp-Npg-B5-Asp-[MorphAc]GAbu-Ala-Ala-Phe-Leu-PyrS2-3Thi-BztA-Gln-NH2]	7.85
CC(=O)N1CCC[C@]12CC=CCCCC1(CCCC=CCCCOC(=O)N3CC[C@@](C(=O)N[C@@H](Cc4ccccc4)C(=O)N[C@@H](Cc4csc5ccccc45)C(=O)N[C@@H](C)C(N)=O)(C3)NC(=O)[C@H](CC(C)C)NC(=O)[C@H](Cc3ccccc3)NC(=O)[C@H](C)NC(=O)[C@H](CCCCNC(C)C)NC(=O)[C@H](CCC(N)=O)NC(=O)[C@H](CC(=O)O)NC1=O)NC(=O)[C@H](CC1CCCCC1)NC(=O)[C@H](CC(N)=O)NC2=O (stereo partly drawn) [I-2352, Ac-PL3-Asn-Cha-B5-Asp-Gln-iPrLys-Ala-Phe-Leu-PyrS2-Phe-BztA-Ala-NH2]	6.68
CC(C)C[C@@H]1NC(=O)[C@H](Cc2ccccc2)NC(=O)[C@H](C)NC(=O)[C@H](C)NC(=O)[C@H](CN(CC(=O)O)CC(F)(F)F)NC(=O)[C@H](CC(=O)O)NC(=O)C2(CCCCCCCCOC(=O)N3CC[C@@](C(=O)N[C@@H](Cc4ccsc4)C(=O)N[C@@H](Cc4csc5ccccc45)C(=O)N[C@@H](CCC(N)=O)C(N)=O)(C3)NC1=O)CCCCCCOc1cccc(c1)C(=O)N1CCC[C@H]1C(=O)N[C@@H](CC(=O)O)C(=O)N[C@@H](CC(C)(C)C)C(=O)N2 (stereo partly drawn) [I-2377, ProBzAm3OAllyl-Asp-Npg-B5-Asp-TfeGA-Ala-Ala-Phe-Leu-PyrS2-3Thi-BztA-Gln-NH2]	6.01
CC(=O)N1CCC[C@]12CC=CCCCC1(CCCC=CCCCOC(=O)N3CC[C@@](C(=O)N[C@@H](Cc4cccc(Cl)c4)C(=O)N[C@@H](Cc4csc5ccccc45)C(=O)N[C@@H](CCC(N)=O)C(N)=O)(C3)NC(=O)[C@H](CC(N)=O)NC(=O)[C@H](Cc3ccccc3)NC(=O)[C@H](C)NC(=O)[C@H](C)NC(=O)[C@H]([C@@H](C)O)NC(=O)[C@H](CC(N)=O)NC1=O)NC(=O)[C@H](CC(C)(C)C)NC(=O)[C@H](CC(=O)O)NC2=O (stereo partly drawn) [I-2000, Ac-PL3-Asp-Npg-B5-Asn-Thr-Ala-Ala-Phe-Asn-PyrS2-3C1F-BztA-Gln-NH2]	5.18
